The record followed here is PMC5772529 (Scientific Reports, 2018).

Series [1] addresses T1, human CaV2.2 (α1B, β3, α2δ1) (Homo sapiens, UniProt Q00975).
T1 construct: expressed in transfected cells
Put plainly: cell-based. Also noted: Emax: dose or concentration left out as unconfirmed.

In the next series the test system is Beagle dogs. As to conditions: dog, in vivo.

Positions of bridges follow the written chain, without caps; N, C: chain ends. Residues, ends and D or L forms follow the SMILES beside them. Some results are limits rather than exact numbers.

T1 sequence (Q00975 whole entry, looked up): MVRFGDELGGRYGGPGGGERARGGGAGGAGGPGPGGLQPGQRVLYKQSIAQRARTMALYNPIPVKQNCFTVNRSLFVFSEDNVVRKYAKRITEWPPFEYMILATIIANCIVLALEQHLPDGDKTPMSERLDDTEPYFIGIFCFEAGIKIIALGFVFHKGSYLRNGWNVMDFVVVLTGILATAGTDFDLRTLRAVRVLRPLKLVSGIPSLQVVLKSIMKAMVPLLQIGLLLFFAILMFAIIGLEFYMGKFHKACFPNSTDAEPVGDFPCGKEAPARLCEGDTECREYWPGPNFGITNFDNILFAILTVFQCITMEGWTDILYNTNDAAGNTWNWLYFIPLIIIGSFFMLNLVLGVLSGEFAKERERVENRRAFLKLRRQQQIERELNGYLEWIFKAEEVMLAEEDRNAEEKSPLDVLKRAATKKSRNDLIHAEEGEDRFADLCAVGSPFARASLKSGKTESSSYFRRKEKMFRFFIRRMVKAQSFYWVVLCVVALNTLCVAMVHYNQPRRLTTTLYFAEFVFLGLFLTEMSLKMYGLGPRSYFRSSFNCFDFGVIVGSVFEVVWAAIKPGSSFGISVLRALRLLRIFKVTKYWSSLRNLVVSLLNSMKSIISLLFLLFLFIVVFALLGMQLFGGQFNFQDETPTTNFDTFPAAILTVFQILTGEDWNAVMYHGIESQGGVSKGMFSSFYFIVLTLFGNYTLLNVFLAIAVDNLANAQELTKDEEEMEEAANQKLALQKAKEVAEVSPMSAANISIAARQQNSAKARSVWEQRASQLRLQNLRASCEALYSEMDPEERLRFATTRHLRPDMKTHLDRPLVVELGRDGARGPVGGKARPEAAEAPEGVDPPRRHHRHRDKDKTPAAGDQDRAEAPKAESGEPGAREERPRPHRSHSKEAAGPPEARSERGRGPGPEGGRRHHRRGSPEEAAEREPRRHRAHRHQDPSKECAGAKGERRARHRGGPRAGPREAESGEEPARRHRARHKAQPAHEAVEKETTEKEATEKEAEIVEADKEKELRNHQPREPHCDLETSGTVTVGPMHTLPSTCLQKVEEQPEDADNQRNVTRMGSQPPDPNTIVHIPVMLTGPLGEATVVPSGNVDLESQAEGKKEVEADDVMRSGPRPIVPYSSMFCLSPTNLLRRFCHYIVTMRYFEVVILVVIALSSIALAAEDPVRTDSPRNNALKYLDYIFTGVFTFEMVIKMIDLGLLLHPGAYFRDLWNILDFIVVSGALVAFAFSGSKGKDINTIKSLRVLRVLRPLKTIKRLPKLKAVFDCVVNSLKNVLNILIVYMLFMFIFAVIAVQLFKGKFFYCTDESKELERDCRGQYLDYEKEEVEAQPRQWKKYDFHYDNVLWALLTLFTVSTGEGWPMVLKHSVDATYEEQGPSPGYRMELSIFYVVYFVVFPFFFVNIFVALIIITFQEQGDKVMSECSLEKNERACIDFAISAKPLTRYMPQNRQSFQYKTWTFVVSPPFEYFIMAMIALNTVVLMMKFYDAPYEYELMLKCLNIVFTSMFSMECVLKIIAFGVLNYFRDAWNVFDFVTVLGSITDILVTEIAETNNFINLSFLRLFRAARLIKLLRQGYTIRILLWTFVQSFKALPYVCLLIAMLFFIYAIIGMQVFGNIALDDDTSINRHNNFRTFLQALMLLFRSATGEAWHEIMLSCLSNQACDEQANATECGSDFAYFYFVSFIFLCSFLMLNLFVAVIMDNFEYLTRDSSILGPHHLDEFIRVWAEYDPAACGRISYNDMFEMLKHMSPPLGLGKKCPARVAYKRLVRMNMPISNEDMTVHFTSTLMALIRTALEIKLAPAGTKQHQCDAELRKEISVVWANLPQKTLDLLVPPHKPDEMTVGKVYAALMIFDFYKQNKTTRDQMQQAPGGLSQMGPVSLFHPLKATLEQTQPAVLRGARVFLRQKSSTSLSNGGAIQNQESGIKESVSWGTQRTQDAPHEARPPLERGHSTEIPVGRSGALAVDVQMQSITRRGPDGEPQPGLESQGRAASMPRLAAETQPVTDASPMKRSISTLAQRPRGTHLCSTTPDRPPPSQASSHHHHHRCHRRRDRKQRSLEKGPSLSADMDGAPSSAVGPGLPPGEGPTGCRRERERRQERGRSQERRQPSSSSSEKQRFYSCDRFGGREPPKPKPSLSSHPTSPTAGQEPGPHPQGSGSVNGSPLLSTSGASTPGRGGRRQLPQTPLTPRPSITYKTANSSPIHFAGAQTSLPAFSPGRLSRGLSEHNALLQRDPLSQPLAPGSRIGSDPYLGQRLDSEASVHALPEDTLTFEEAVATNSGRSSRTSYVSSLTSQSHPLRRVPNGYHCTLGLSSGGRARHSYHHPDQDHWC

The IC50 is the point on the concentration scale where inhibition reaches its midpoint. As a reminder, the inhibition is how much of the control response was suppressed. `CSCC[C@@H]1NC(=O)[C@@H]2CSSC[C@H](NC(=O)CN)C(=O)N[C@@H](CSSC[C@@H](C(N)=O)NC(=O)[C@H](CC(C)C)NC(=O)[C@H](CC(N)=O)NC(=O)[C@@H]3CCCN3C(=O)[C@H](CC(N)=O)NC(=O)[C@H](CCCCN)NC(=O)[C@H](CC(C)C)NC1=O)C(=O)N[C@@H](CO)C(=O)N[C@@H](CC(N)=O)C(=O)N1CCC[C@H]1C(=O)N[C@@H](C)C(=O)N2` [Eu1.6] (H-GCCSNPACMLKNPNLC-NH2; disulfide 2-8, 3-16): in series [1], 1.1 nM corresponded to half-maximal inhibition (IC50), the “maximum block of CaV2.2” value is on record as below 50% and the “reduction of peak current density” value is above 40%. Also, in series [1] (HEK293, read-out: inhibition of depolarization-activated Ba2+ current amplitude), the inhibition at 1 µM was above 30%. Also, the Emax in series [1] (HEK293, read-out: maximal effect (partial inhibitor)) is 40%. Moreover, the “physiological impairments of baseline parameters (locomotion, cardiac and respiratory function)” value in the series on Beagle dogs is listed as “no physiological impairments”.
